# Read-outs that look alike come from different tables or passages of the source. Marks after values point to notes of the source that are not given here.
# Experiments:
# [1] = test system: carnitine palmitoyltransferase; conditions: cited from earlier work
# male mice = conditions: high fat diet, 1 g/kg diet; cited from earlier work
# [2] = test system: C57BL/6J mice with diet-induced obesity; test: Body weight gain in high fat diet feeding study (10 wk); assay type: in vivo; conditions: for Body weight gain: mean ± SD (n = 3-5)
# [3] = test system: IL-8 release in Caco-2 cell cultures; conditions: cited from earlier work
# [4] = HPLC quantification of ascorbic acid, chlorogenic acid, caffeic acid, ferulic acid and rutin in tubers, tuber tissues and extracts; conditions: for % reduction; from 1 to 7 months storage (HPLC content): tubers of 12 Canadian-grown cultivars, cold storage
# Description: This assay was based on the method developed by Shakya and Navarre (J Agric Food Chem (2006) 54:5253-5260). Initially, samples (50 mg of freeze-dried powder) were extracted in 0.9 mL of extraction buffer (50% MeOH, 2.5% metaphosphoric acid, 1 mM EDTA) in a 2 mL screw cap tube. Samples were vortexed for 30 sec and centrifuged at 11,070×g for 15 min at 4° C. The supernatant was transferred to a 1.5 mL glass vial. The remaining pellet was re-extracted with 0.6 mL of extraction buffer and centrifuged. The supernatants were combined and concentrated in a Speed Vac (Thermo Savant SC 210A, Waltham, Mass.). The concentrated samples were solubilised with 500 mL of extraction buffer and filtered using 0.45 mm membrane filters (Durapore, PVDF) into 1 mL HPLC glass vials. Samples were kept chilled at all times and shielded from bright light. Samples were analyzed using a Varian HPLC system with a quaternary gradient pump, a single wavelength UV/VIS detector, and an autosampler with refrigerated sample compartment (Varian Canada Inc, Mississauga, ON). Samples were eluted using an Onyx reverse-phase HPLC column (100×4.5 mm) (Phenomenex, Netherlands), a solvent flow rate of 2 mL/min and a solvent gradient of 0-1 min 100% buffer A (10 mM formic acid, pH 3.5, with NH4OH), 1-5 min 0-30% buffer B (100% methanol with 5 mM ammonium formate), 5-6.5 min 40-0% buffer B, 6.5-8.5 min 70-100% buffer B. The phenolic acids in the samples were analyzed qualitatively and quantitatively using standards.
# Ascorbic acid concentration was also determined as it is also an important antioxidant compound present in potato. HPLC determination is based on the retention time of a particular compound within a mixed sample in the column compared with purchased pure standards. Three different buffers (Buffer A, Buffer B, & Extraction buffer) were prepared. Buffer A was 10 mM formic acid (Fisher Scientific, ON, Canada) (0.46 g of formic acid in 1 L distilled water adjusted to pH 3.5 using 1M NH4OH solution). Buffer A was kept in a fridge (4° C.) until used. Buffer B was 5 mM ammonium formate (Sigma-Aldrich Chemicals, Germany) (0.32 g of ammonium formate in 1 L 100% methanol with agitation on a magnetic stirrer as ammonium formate is highly insoluble). Buffer B was also refrigerated. The extraction buffer was 50% methanol (Fisher Scientific, ON, Canada), 2.5% metaphosphoric acid (Aldrich Chemicals, WI, USA) and 1 mM ethylenediaminetetraacetic acid (EDTA; Sigma-Aldrich Chemicals, Germany) (50 ml of 100% methanol, 2.5 g of metaphosphoric acid, and 0.4 g of EDTA in 100 ml distilled water with stirring followed by filtering using a cup filter (Millipore Corporation, MS, USA). The extraction buffer was also refrigerated. […]
# [5] = test system: C57BL/6J mice with diet-induced obesity; test: Blood glucose concentration at the end of the HFD feeding period; conditions: mean ± SD (n = 3-5)
# [6] = test system: potato microtubers of cvs. Onaway and Goldrush; test: H2O2 hormesis: antioxidant capacity (DPPH) of in vitro-grown microtubers; conditions: for DPPH total antioxidant capacity of microtubers: mean ± SE (n = 5)
# Description: Plantlets of cvs. Onaway and Goldrush were selected for their relatively high concentrations of antioxidants in field-grown tubers. […] Medium consisted of basal salt solution and organic fraction solidified with 7 g 1^-1 agar ([…]) adjusted to pH 5.7 before autoclaving at 121° C. for 20 min. […] (1994). […] Phase I promoted the vegetative growth of plantlets which was luxurious after 4 weeks. In Phase II, the residual medium was drained and replaced with 150 ml of liquid induction medium containing increased sucrose (80 gl^-1) and no growth regulators. […] Phase II plantlets of cvs. […] At harvest, microtubers of cvs. […] (2007).
# [7] = test system: potato microtubers of cvs. Onaway and Goldrush; test: H2O2 hormesis: total phenolic content of microtubers (Folin-Ciocalteu); conditions: for Total phenolics (Folin-Ciocalteu) of microtubers: mean ± SE (n = 5)
# Description: (§1) Based on a preliminary study, concentrations of 2 and 4 mM H2O2 and spray volume of ˜6 ml were selected for hormetic treatments. Phase II plantlets of cvs. Onaway and Goldrush (at 2- and 3-weeks) were treated with three concentrations (0, 2, 4 mM) of H2O2 with 5 replicates×4 containers per replicate (20 containers per treatment). Results were analyzed for variance (ANOVA) test using General Linear Model (GLM) of Statistical Analysis System (SAS) (SAS v 9.2, 2010) (SAS Institute Inc., Cary, N.C., USA). Means were compared using Duncan's Multiple Comparison test (P≦0.05).
# (§2) At harvest, microtubers of cvs. Onaway and Goldrush were weighed, and averaged from 20 separate containers. For each replicate, microtubers were pooled for analysis, for a total of 5 samples per treatment/cultivar.
# [8] = test system: potato microtubers of cvs. Onaway and Goldrush; conditions: for Increase of ascorbic acid content in comparison to control: cv. Goldrush microtubers; for Ascorbic acid of microtubers / Caffeic acid of microtubers / Chlorogenic acid of microtubers: mean ± SE (n = 5)
# Description: as §1, §2
# [9] = test system: potato microtubers of cvs. Onaway and Goldrush; test: H2O2 hormesis: microtuber mass / yield; conditions: for Microtuber mass: mean of 20 containers
# Description: (1994). […] Cultures were placed into a growth chamber adjusted to 20±2° C. under 85 μmol m^-2s^-1 cool white florescent illumination with 16:8 h day:night cycle. Phase I promoted the vegetative growth of plantlets which was luxurious after 4 weeks. In Phase II, the residual medium was drained and replaced with 150 ml of liquid induction medium containing increased sucrose (80 gl^-1) and no growth regulators. Phase II incubation occurred at cooler temperature (15±2° C.), under reduced illumination (50 μmol m^-2s^-1), and reversed (8:16 h) day:night cycle. […] Phase II plantlets of cvs. […] At harvest, microtubers of cvs. […] (2007).
# [10] = Females, HFD + 1X (1x CGA 8 mg/kg HFD; 1x FA 20 mg/kg HFD)
# [11] = Females, HFD + 5X (1x CGA 8 mg/kg HFD; 1x FA 20 mg/kg HFD)
# [12] = Females, HFD + 25X (1x CGA 8 mg/kg HFD; 1x FA 20 mg/kg HFD)
# [13] = Males, HFD + 1X (1x CGA 8 mg/kg HFD; 1x FA 20 mg/kg HFD)
# [14] = Males, HFD + 5X (1x CGA 8 mg/kg HFD; 1x FA 20 mg/kg HFD)
# [15] = Males, HFD + 25X (1x CGA 8 mg/kg HFD; 1x FA 20 mg/kg HFD)
compound,measurement,setting,value
O=C(/C=C/c1ccc(O)c(O)c1)O[C@@H]1C[C@@](O)(C(=O)O)C[C@@H](O)[C@@H]1O [neochlorogenic acid],Carnitine palmitoyltransferase activity,[1],enhanced
O=C(/C=C/c1ccc(O)c(O)c1)O[C@@H]1C[C@](O)(C(=O)O)C[C@@H](O)[C@H]1O [chlorogenic acid],Effect on body weight gain,male mice,no effect on body weight gain
same,Body weight gain,[2]; [10],9.7 ± 4.9^a g
same,Body weight gain,[2]; [11],7.6 ± 4.1^a g
same,Body weight gain,[2]; [12],9.8 ± 3.4^a g
same,Body weight gain,[2]; [13],22.4 ± 0.8^b g
same,Body weight gain,[2]; [14],"18.2 ± 4.1^a,b,c g"
same,Body weight gain,[2]; [15],8.8 ± 5.3^c g
same,Effect of pure compound on body weight,"[2]; female mice, up to 200 mg/kg diet",no statistically significant effect
same,Effect of pure compound on body weight gain,"[2]; male mice, 8-200 mg/kg diet",did not affect body weight gain
same,Dose needed to suppress IL-8 secretion to levels seen in control cultures,[3],2000 µM
same,Carnitine palmitoyltransferase activity,[1],unaffected
O=C(O)/C=C/c1ccc(O)c(O)c1 [caffeic acid],% reduction; from 1 to 7 months storage (HPLC content),[4],92.16%
same,Dose needed to suppress IL-8 secretion to levels seen in control cultures,[3],2000 µM
COc1cc(/C=C/C(=O)O)ccc1O [ferulic acid],Fasting blood glucose,[5]; [10],3.8 ± 0.6^a mmol/L
same,Fasting blood glucose,[5]; [11],6.9 ± 1.1^a mmol/L
same,Fasting blood glucose,[5]; [12],4.7 ± 1.6^a mmol/L
same,Fasting blood glucose,[5]; [13],5.2 ± 0.6^b mmol/L
same,Fasting blood glucose,[5]; [14],6.1 ± 1.2^a mmol/L
same,Fasting blood glucose,[5]; [15],5.4 ± 0.2^b mmol/L
same,% reduction; from 1 to 7 months storage (HPLC content),[4],90.21%
same,Body weight gain,[2]; [10],9.7 ± 3.4^a g
same,Body weight gain,[2]; [11],6.3 ± 1.2^a g
same,Body weight gain,[2]; [12],8.8 ± 5.0^a g
same,Body weight gain,[2]; [13],"12.4 ± 3.7^a,b,c g"
same,Body weight gain,[2]; [14],"10.8 ± 2.3^a,b,c g"
same,Body weight gain,[2]; [15],"11.0 ± 6.5^a,b,c g"
same,Effect of pure compound on body weight gain,"[2]; both sexes, up to 500 mg/kg diet",ineffective in suppressing body weight gain
O=C1O[C@H]([C@@H](O)CO)C(O)=C1O [ascorbic acid],% reduction of ascorbic acid with storage,"[4]; tubers of 5 foreign cultivars, 1 to 7 months storage",36.09%
same,% reduction; from 1 to 7 months storage (HPLC content),[4],80.48%
"OO [H2O2, Hydrogen peroxide]",Increase of antioxidant capacity (DPPH) over control,"[6]; cv. Goldrush microtubers, 2 mM H2O2 spray",26%
same,Increase of antioxidant capacity (DPPH) over control,"[6]; cv. Goldrush microtubers, 4 mM H2O2 spray",20%
same,DPPH total antioxidant capacity of microtubers,"[6]; cv. Goldrush, 2 mM H2O2 spray",1.316 ± 0.02^a mg/g
same,DPPH total antioxidant capacity of microtubers,"[6]; cv. Goldrush, 4 mM H2O2 spray",1.214 ± 0.04^b mg/g
same,Increase of antioxidant capacity (DPPH) over control,"[6]; cv. Onaway microtubers, 2 or 4 mM H2O2",12-14%
same,DPPH total antioxidant capacity of microtubers,"[6]; cv. Onaway, 2 mM H2O2 spray",0.862 ± 0.02^a mg/g
same,DPPH total antioxidant capacity of microtubers,"[6]; cv. Onaway, 4 mM H2O2 spray",0.882 ± 0.04^a mg/g
same,Total phenolics (Folin-Ciocalteu) of microtubers,"[7]; cv. Goldrush, 2 mM H2O2 spray",7.076 ± 0.01^a mg/g
same,Total phenolics (Folin-Ciocalteu) of microtubers,"[7]; cv. Goldrush, 4 mM H2O2 spray",6.354 ± 0.00^a mg/g
same,Total phenolics (Folin-Ciocalteu) of microtubers,"[7]; cv. Onaway, 2 mM H2O2 spray",4.376 ± 0.00^a mg/g
same,Total phenolics (Folin-Ciocalteu) of microtubers,"[7]; cv. Onaway, 4 mM H2O2 spray",3.789 ± 0.00^a mg/g
same,Effect on total polyphenolic levels (Folin-Ciocalteu),"[7]; either cultivar, 2 and 4 mM",not significantly affected
same,Increase of ascorbic acid content in comparison to control,[8]; 2 mM,35%
same,Increase of ascorbic acid content in comparison to control,[8]; 4 mM,34%
same,Effect on microtuber caffeic acid content,"[8]; cv. Goldrush, 2 mM",significant depression
same,Increase of microtuber chlorogenic acid content,"[8]; cv. Goldrush, 2 mM",16.8%
same,Ascorbic acid of microtubers,"[8]; cv. Goldrush, 2 mM H2O2 spray",0.269 ± 0.03^a mg/g
same,Caffeic acid of microtubers,"[8]; cv. Goldrush, 2 mM H2O2 spray",0.008 ± 0.00^b mg/g
same,Chlorogenic acid of microtubers,"[8]; cv. Goldrush, 2 mM H2O2 spray",0.561 ± 0.02^a mg/g
same,Ascorbic acid of microtubers,"[8]; cv. Goldrush, 4 mM H2O2 spray",0.265 ± 0.00^a mg/g
same,Caffeic acid of microtubers,"[8]; cv. Goldrush, 4 mM H2O2 spray",0.011 ± 0.00^a mg/g
same,Chlorogenic acid of microtubers,"[8]; cv. Goldrush, 4 mM H2O2 spray",0.460 ± 0.02^b mg/g
same,Treatment effect on ascorbic acid content,[8]; cv. Onaway microtubers,not significant
same,Increase of microtuber chlorogenic acid content,"[8]; cv. Onaway, 2 mM",17.3%
same,Ascorbic acid of microtubers,"[8]; cv. Onaway, 2 mM H2O2 spray",0.170 ± 0.02^a mg/g
same,Caffeic acid of microtubers,"[8]; cv. Onaway, 2 mM H2O2 spray",0.002 ± 0.00^a mg/g
same,Chlorogenic acid of microtubers,"[8]; cv. Onaway, 2 mM H2O2 spray",0.304 ± 0.02^a mg/g
same,Ascorbic acid of microtubers,"[8]; cv. Onaway, 4 mM H2O2 spray",0.164 ± 0.02^a mg/g
same,Caffeic acid of microtubers,"[8]; cv. Onaway, 4 mM H2O2 spray",0.001 ± 0.00^b mg/g
same,Chlorogenic acid of microtubers,"[8]; cv. Onaway, 4 mM H2O2 spray",0.265 ± 0.04^ab mg/g
same,Effect on microtuber yield,"[9]; at the dosage applied (2, 4 mM)",did not affect yield
same,Microtuber mass,"[9]; cv. Goldrush, 2 mM H2O2 spray",10.25^a g
same,Microtuber mass,"[9]; cv. Goldrush, 4 mM H2O2 spray",10.26^a g
same,Microtuber mass,"[9]; cv. Onaway, 2 mM H2O2 spray",5.09^a g
same,Microtuber mass,"[9]; cv. Onaway, 4 mM H2O2 spray",5.07^a g

# Reference: patent US9446063B2, “Methods for treating type-2 diabetes and obesity” (priority 2009, dated 2016)
